# Test results taken from patent US20100331267A1, “USE OF CYCLOHEXANEHEXOL DERIVATIVES IN THE TREATMENT OF ALPHA-SYNUCLEINOPATHIES” (priority 2007, published 2010).
# Tests used:
# α-synuclein = biological target: T1, α-synuclein (Homo sapiens, UniProt P37840, A53T); assay: Thioflavin T binding assay of α-synuclein aggregation; assay type: biochemical; details: α-synuclein 2 mg/ml, 24 hrs at 37° C., scyllo-inositol 1:20 ratio by weight
# T1 construct: made in house; host or cells: E. coli
# Experimental: (§1) α-Synuclein will be purified from E. coli expressing the native and the aggregation prone A53T mutant proteins via chromatography on a Q-sepharose column.[10, 12] Recombinant α-synuclein spontaneously aggregates into fibers upon incubation at high concentrations 2 mg/ml. To assay the α-synuclein aggregation the proteins will then be incubated at 37° C. (50 mM Tris, pH 7.5) with shaking in the presence and absence of the inositols in varying ratios from 1:1 to 1:100 protein:inositol. The products of these incubations will be evaluated with the biophysical techniques discussed below.
# Fluorimetry. Fluorescent probes are exceptionally useful to follow the aggregation kinetics of proteins. Two fluorescent probes, Thioflavin T (ThT) and 1-Anilinonaphthalene-8-sulfonic acid (ANS) are the most commonly used probes for α-synuclein. […] Thus, the amyloid fibrils formed from the proteins used in these studies bind ThT and binding is monitored by an increase in fluorescence intensity. Oligomers other than the amyloid fibrils can also have significant β-sheet character and bind ThT. ANS binds to hydrophobic unstructured proteins and is complementary to ThT fluorescence assays. Upon binding in a hydrophobic environment ANS undergoes an increase in quantum yield and a blue shift in its fluorescence emission maximum.
# [1] = biological target: T2, A53T mutant of α-synuclein (Homo sapiens, UniProt P37840, A53T); assay: Negative stain electron microscopy of α-synuclein fibre formation; assay type: biochemical
# T2 construct: made in house; host or cells: E. coli
# Experimental: as §1, with “below. Negative stain electron microscopy is an excellent tool to examine the gross morphology of the protein aggregates formed. Samples will be examined as a function of time and scyllo-inositol concentrations.” for “below.”
# Aβ peptide fibrils = details: stated as previously shown; cited from earlier work
smiles,measurement,setting,value
O[C@H]1[C@H](O)[C@@H](O)[C@H](O)[C@@H](O)[C@@H]1O [scyllo-inositol],Thioflavin T fluorescence (FIG. 2),α-synuclein,fluorescence increases upon short incubations with scyllo-inositol and the fluorescence decreases with time
same,"aggregates produced (negative stain EM, FIG. 1)","[1]; A53T mutant, after 24 hours of incubation at 37° C., without compound: characteristic α-synuclein fibrils",a few thin fibrils with the majority of the visible protein being present as amorphous aggregates
same,"α-synuclein fibres formed (negative stain electron microscopy, FIG. 1 legend)","[1]; α-synuclein 2 mg/ml, scyllo-inositol 1:20 ratio by weight, 2 days at 37° C., alone: long mature fibres",only small aggregates could be detected
same,disaggregation of preformed Aβ peptide fibrils,Aβ peptide fibrils,able to disaggregate preformed Aβ peptide fibrils
